# Measured values from patent US20140350081A1, “INSECT G-COUPLED RECEPTORS USEFUL AS TARGETS FOR INSECTICIDES AND COMPOUNDS AND REAGENTS IDENTIFIED USING THE SAME” (priority 2011, published 2014).
# Structures can show the parent of a compound that is named as a salt.
# Target: AaDOP2 (Aedes aegypti, UniProt H6D5H2)
# Test: HTRF cAMP accumulation concentration response assay (Cisbio Dynamic 2)
# Assay type: cell-based
# Details: not given
# Chain of AaDOP2 (H6D5H2 entry or part of it): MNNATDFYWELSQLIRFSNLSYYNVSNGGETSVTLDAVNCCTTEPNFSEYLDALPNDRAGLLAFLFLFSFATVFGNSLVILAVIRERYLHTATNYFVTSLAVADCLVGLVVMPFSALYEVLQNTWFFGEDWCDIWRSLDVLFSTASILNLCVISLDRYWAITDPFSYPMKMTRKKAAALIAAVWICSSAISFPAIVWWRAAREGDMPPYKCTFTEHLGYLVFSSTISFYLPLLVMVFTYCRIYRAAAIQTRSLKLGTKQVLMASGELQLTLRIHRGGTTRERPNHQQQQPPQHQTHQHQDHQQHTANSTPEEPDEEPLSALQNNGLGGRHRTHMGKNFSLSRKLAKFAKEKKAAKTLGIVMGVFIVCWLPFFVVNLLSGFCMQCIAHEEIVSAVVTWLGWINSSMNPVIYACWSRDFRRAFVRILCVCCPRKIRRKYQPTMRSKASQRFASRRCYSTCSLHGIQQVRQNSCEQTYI
row,SMILES,IC50
1,"CCc1nn(CCCN2CCN(c3cccc(Cl)c3)CC2)c(=O)n1CCOc1ccccc1 [Nefazodone HCl, 2-[3-[4-(3-chlorophenyl)-1-piperazinyl]propyl]-5-ethyl-2,4-dihydro-4-(2-phenoxyethyl)-3H-1,2,4-triazol-3-one hydrochloride]",4880 nM

# Same assay, conditions: AaDOP2 expressing cells in the presence of dopamine; No Inhibition = <10% inhibition at 3 μM test compound; read-out: IC50 ± S.E.M. (nM), HTRF cAMP assay
row,SMILES,IC50
1,Cc1nc2sccn2c(=O)c1CCN1CCC(=C(c2ccccc2)c2ccc(F)cc2)CC1 [Compound R59-022],53 ± 13 nM
2,CCOC(=O)N1CCC(=C2c3ccc(Cl)cc3CCc3cccnc32)CC1 [Loratidine],18000 nM

# Same assay, conditions: in vitro Concentration Response Curve assay, n = 2, relative to control antagonist Amitriptyline; read-out: Avg IC50
row,IC50,SMILES
1,11600 nM,"Cc1cc(Nc2ccccc2)nc(Nc2ccc(NC(=O)C3CCCCC3)cc2)n1 [Compound G869-0105, N-(4-((4-methyl-6-(phenylamino)pyrimidin-2-yl)amino)phenyl)cyclohexanecarboxamide]"
2,9020 nM,"COc1ccc(Nc2cc(C)nc(Nc3ccc(NC(=O)CC(C)(C)C)cc3)n2)cc1 [Compound G869-0275, N-(4-((4-((4-methoxyphenyl)amino)-6-methylpyrimidin-2-yl)amino)phenyl)-3,3-dimethylbutanamide]"
3,4550 nM,"Cc1ccc(Nc2nc(N3CCN(C)CC3)nc3c2cnn3-c2ccccc2)cc1 [Compound G932-0029, 6-(4-methylpiperazin-1-yl)-1-phenyl-N-(p-tolyl)-1H-pyrazolo[3,4-d]pyrimidin-4-amine]"
4,1170 nM,"OCCN1CCN(c2nc(Nc3ccccc3)c3cnn(-c4ccccc4)c3n2)CC1 [Compound G932-0232, 2-(4-(1-phenyl-4-(phenylamino)-1H-pyrazolo[3,4-d]pyrimidin-6-yl)piperazin-1-yl)ethanol]"
5,557 nM,"CCN1CCN(c2nc(Nc3ccccc3)c3cnn(-c4ccccc4)c3n2)CC1 [Compound G932-0245, 6-(4-ethylpiperazin-1-yl)-N,1-diphenyl-1H-pyrazolo[3,4-d]pyrimidin-4-amine]"
6,2500 nM,"CN1CCN(c2nc(Nc3ccc(F)cc3)c3cnn(-c4ccccc4)c3n2)CC1 [Compound G932-0329, N-(4-fluorophenyl)-6-(4-methylpiperazin-1-yl)-1-phenyl-1H-pyrazolo[3,4-d]pyrimidin-4-amine]"
7,3980 nM,"CN1CCN(c2nc(Nc3ccc(Cl)cc3)c3cnn(-c4ccccc4)c3n2)CC1 [Compound G932-0379, N-(4-chlorophenyl)-6-(4-methylpiperazin-1-yl)-1-phenyl-1H-pyrazolo[3,4-d]pyrimidin-4-amine]"
8,1480 nM,"OCCN1CCN(c2nc(Nc3cccc(F)c3)c3cnn(-c4ccccc4)c3n2)CC1 [Compound G932-0674, 2-(4-(4-((3-fluorophenyl)amino)-1-phenyl-1H-pyrazolo[3,4-d]pyrimidin-6-yl)piperazin-1-yl)ethanol]"
9,318 nM,"O=C(NCC1CCCCN1)c1cc(OCC(F)(F)F)ccc1OCC(F)(F)F (centres unmarked) [Flecainide Acetate, N-(2-Piperidylmethyl)-2,5-bis-(2,2,2-trifluoroethoxy)benzamide acetate salt]"
10,186 nM,"O=C1[C@H]2CCCC[C@H]2C(=O)N1CCCCN1CCN(c2nsc3ccccc23)CC1 [Peropirone Hcl, (3aR,7aS)-2-{4-[4-(1,2-benzisothiazol-3-yl)piperazin-1-yl]butyl}hexahydro-1H-isoindole-1,3(2H)-dione]"
11,8860 nM,"Cc1ccccc1Nc1nc(Nc2ccccc2C)c2ccccc2n1 [ST027415, (2-methylphenyl){2-[(2-methylphenyl)amino]quinazolin-4-yl}amine]"
12,5510 nM,"O=[N+]([O-])C1=Cc2ccccc2OC1c1ccc2c(c1)OCO2 (centres unmarked) [ST038696, 5-(3-nitro-2H-chromen-2-yl)-2H-benzo[d]1,3-dioxolane]"
13,74200 nM,"N=C1SC(=Cc2cc3c(cc2Br)OCO3)C(=O)N1c1ccc(OC(F)(F)F)cc1 [ST052085, 5-[(6-bromo(2H-benzo[d]1,3-dioxolen-5-yl))methylene]-2-imino-3-[4-(trifluoromethoxy)phenyl]-1,3-thiazolidin-4-one]"

# Second part, the compound before the results:
row,SMILES,IC50
1,"CCCCC(=O)Nc1ccc(Nc2nc(C)cc(Nc3ccccc3)n2)cc1 [Compound G869-0099, N-(4-((4-methyl-6-(phenylamino)pyrimidin-2-yl)amino)phenyl)pentanamide]",5950 nM
2,"Cc1cc(Nc2ccccc2)nc(Nc2ccc(NC(=O)C(C)(C)C)cc2)n1 [Compound G869-0100, N-(4-((4-methyl-6-(phenylamino)pyrimidin-2-yl)amino)phenyl)pivalamide]",2080 nM
3,"Cc1cc(Nc2ccccc2)nc(Nc2ccc(NC(=O)CC(C)C)cc2)n1 [Compound G869-0101, 3-methyl-N-(4-((4-methyl-6-(phenylamino)pyrimidin-2-yl)amino)phenyl)butanamide]",5500 nM
4,"COc1cc(OC)cc(C(=O)Nc2ccc(Nc3nc(C)cc(Nc4ccccc4)n3)cc2)c1 [Compound G869-0121, 3,5-dimethoxy-N-(4-((4-methyl-6-(phenylamino)pyrimidin-2-yl)amino)phenyl)benzamide]",2220 nM
5,"Cc1cc(Nc2ccccc2)nc(Nc2ccc(NC(=O)c3ccccc3Cl)cc2)n1 [Compound G869-0127, 2-chloro-N-(4-((4-methyl-6-(phenylamino)pyrimidin-2-yl)amino)phenyl)benzamide]",7510 nM
6,"COc1ccc(Nc2cc(C)nc(Nc3ccc(NC(C)=O)cc3)n2)cc1 [Compound G869-0268, N-(4-((4-((4-methoxyphenyl)amino)-6-methylpyrimidin-2-yl)amino)phenyl)acetamide]",13200 nM
7,"COc1ccc(Nc2cc(C)nc(Nc3ccc(NC(=O)C(C)(C)C)cc3)n2)cc1 [Compound G869-0273, N-(4-((4-((4-methoxyphenyl)amino)-6-methylpyrimidin-2-yl)amino)phenyl)pivalamide]",5090 nM
8,"COc1ccc(Nc2cc(C)nc(Nc3ccc(NC(=O)c4c(F)cccc4Cl)cc3)n2)cc1 [Compound G869-0304, 2-chloro-6-fluoro-N-(4-((4-((4-methoxyphenyl)amino)-6-methylpyrimidin-2-yl)amino)phenyl)benzamide]",7170 nM
9,"Cc1cc(N2CCCC2)nc(Nc2ccc(NC(=O)c3ccccc3Br)cc2)n1 [Compound G869-0472, 2-bromo-N-(4-((4-methyl-6-(pyrrolidin-1-yl)pyrimidin-2-yl)amino)phenyl)benzamide]",19400 nM
10,"Cc1cc(N2CCCC2)nc(Nc2ccc(NC(=O)Cc3ccccc3)cc2)n1 [Compound G869-0499, N-(4-((4-methyl-6-(pyrrolidin-1-yl)pyrimidin-2-yl)amino)phenyl)-2-phenylacetamide]",9230 nM
11,"Cc1ccccc1Nc1nc(N2CCN(C)CC2)nc2c1cnn2-c1ccccc1 [Compound G932-0129, 6-(4-methylpiperazin-1-yl)-1-phenyl-N-(o-tolyl)-1H-pyrazolo[3,4-d]pyrimidin-4-amine]",3490 nM
12,"CCN1CCN(c2nc(Nc3ccc(F)cc3)c3cnn(-c4ccccc4)c3n2)CC1 [Compound G932-0345, 6-(4-ethylpiperazin-1-yl)-N-(4-fluorophenyl)-1-phenyl-1H-pyrazolo[3,4-d]pyrimidin-4-amin]",4540 nM
13,"CCN(CC)CCNc1nc(Nc2ccc(Cl)cc2)c2cnn(-c3ccccc3)c2n1 [Compound G932-0372, N4-(4-chlorophenyl)-N6-(2-(diethylamino)ethyl)-1-phenyl-1H-pyrazolo[3,4-d]pyrimidine-4,6-diamine]",5130 nM
14,"COc1ccc(Nc2nc(N3CCN(C)CC3)nc3c2cnn3-c2ccccc2)cc1 [Compound G932-0529, N-(4-methoxyphenyl)-6-(4-methylpiperazin-1-yl)-1-phenyl-1H-pyrazolo[3,4-d]pyrimidin-4-amine]",6870 nM
15,"CN1CCN(c2nc(Nc3cccc(F)c3)c3cnn(-c4ccccc4)c3n2)CC1 [Compound G932-0671, N-(3-fluorophenyl)-6-(4-methylpiperazin-1-yl)-1-phenyl-1H-pyrazolo[3,4-d]pyrimidin-4-amine]",585 nM
16,"CCN1CCN(c2nc(Nc3cccc(F)c3)c3cnn(-c4ccccc4)c3n2)CC1 [Compound G932-0687, 6-(4-ethylpiperazin-1-yl)-N-(3-fluorophenyl)-1-phenyl-1H-pyrazolo[3,4-d]pyrimidin-4-amine]",769 nM
17,"CN1CCN(c2nc(Nc3ccc4c(c3)OCO4)c3cnn(-c4ccccc4)c3n2)CC1 [Compound G932-0818, N-(benzo[d][1,3]dioxol-5-yl)-6-(4-methylpiperazin-1-yl)-1-phenyl-1H-pyrazolo[3,4-d]pyrimidin-4-amine]",1650 nM
18,"CCCN1C[C@H](CSC)C[C@@H]2c3cccc4[nH]cc(c34)C[C@H]21 [Pergolide Mesylate, 8β-[(Methylthio)methyl]-6-propylergoline methanesulfonate salt]",704 nM
19,"Cc1ccc(N(CC2=NCCN2)c2cccc(O)c2)cc1 [Phentolamine HCl, 2-[N-(3-Hydroxyphenyl)-p-toluidinomethyl]-2-imidazolidine hydrochloride]",9030 nM
20,"CCOC(=O)c1c(C)n(-c2ccccc2)c2cc(Br)c(OC)cc12 [ST002262, ethyl 6-bromo-5-methoxy-2-methyl-1-phenylindole-3-carboxylate]",4860 nM
21,"CC(C)(O)C#Cc1ccc2c3c(cccc13)C(=O)OC2=O [ST010134, 6-(3-hydroxy-3-methyl-but-1-ynyl)-benzo(de)isochromene-1,3-dione]",952 nM
22,"CCC(CC)c1nc(Nc2ccc(C(=O)OC)cc2)c2ccccc2n1 [ST029812, methyl 4-{[2-(ethylpropyl)quinazolin-4-yl]amino}benzoate]",8930 nM
23,"CCC(CC)c1nc(Nc2ccc(C)c(Cl)c2)c2ccccc2n1 [ST029892, (3-chloro-4-methylphenyl)[2-(ethylpropyl)quinazolin-4-yl]amine]",4510 nM
24,"CC1CCC(C(C)C)C(OC(=O)C(=O)c2ccccc2)C1 (centres unmarked) [ST070482, 5-methyl-2-(methylethyl)cyclohexyl 2-oxo-2-phenylacetate]",32400 nM
25,"CCOC(=O)C1=C(N)Oc2c(oc(CO)cc2=O)C1c1cc([N+](=O)[O-])ccc1Cl (centres unmarked) [ST071653, ethyl 2-amino-4-(2-chloro-5-nitrophenyl)-6-(hydroxymethyl)-8-oxo-4H-pyrano[3,2-b]pyran-3-carboxylate]",1650 nM
